41 compounds from PubChem BioAssay AID1996 can be followed below.

Values after ≈ are worked out from the molar mass of the structure shown.

The conditions of this data set: buffer; pH 7.4; 200.0 µM.
As to `CCC(=O)N(CCC1(C(C)C)CCOC(C)(C)C1)C(C)c1cccs1` (stereo unspecified), the kinetic solubility was found to be 42.2 µg/mL (≈ 115 µM).
`O=C(Nc1cccnc1)c1cc([N+](=O)[O-])ccc1Cl`: the solubility (kinetic) is > 41.7 µg/mL.
As for `Cc1cc(C)c2nc(SCC(=O)Nc3cc(C)on3)c(C#N)cc2c1`, the solubility (kinetic) was < 0.2 µg/mL.
For `CC(C)(C)Nc1nc(Cl)nc(NCCN2CCOCC2)n1`, the solubility (kinetic) worked out at 46.1 µg/mL (≈ 146 µM).
The value for `CC(=O)c1cccc(NC(=O)c2ccccc2-c2ccccc2C(=O)O)c1` was > 53.9 µg/mL; that for `Cc1ccccc1OCC(=O)Nc1ccccc1-c1ccccc1` was < 0.7 µg/mL.
The value for `Cc1ccc([N+](=O)[O-])c(NC2OC(CO)C(O)C2O)c1` (stereo unspecified) was > 42.6 µg/mL; that for `COCCNc1c(-c2ccc(OC)cc2)nc2ccc(Cl)cn12` was 38.4 µg/mL (≈ 116 µM); that for `CCOc1ccc(CCNC(=O)COC(=O)/C=C/c2ccco2)cc1OCC` was 39.5 µg/mL (≈ 102 µM).
In the case of `COc1ccccc1NS(=O)(=O)c1ccc2ccccc2c1` it was 12.1 µg/mL (≈ 38.6 µM).
Regarding `CCOc1cc2c(cc1/C=C/c1noc(C)c1[N+](=O)[O-])OC(C)C2` (stereo unspecified), the solubility (kinetic) is < 0.4 µg/mL.
In the case of `COC(=O)c1sccc1NC(=S)Nc1cccc(F)c1` it was 34.4 µg/mL (≈ 111 µM).
Take `CN1C(=O)Nc2cccc3cccc1c23`: the kinetic solubility is 10.1 µg/mL (≈ 51 µM).
In the case of `COc1ccc(C(=O)CNc2ccc3ccccc3c2)cc1` it was 2.6 µg/mL (≈ 8.92 µM).
In the case of `CCOC(=O)c1ccsc1NC(=O)c1ccco1` it was < 0.6 µg/mL; in that of `Cc1ccc(CCC(=O)Nc2ccccc2C(=O)O)o1`, > 41 µg/mL; in that of `S=c1[nH]c2cc3c(cc2[nH]1)OCCO3`, 19.7 µg/mL (≈ 94.6 µM).
In the case of `Cc1ccc(OCCCCCN2CCOCC2)c(Cl)c1` it was 26.3 µg/mL (≈ 88.3 µM).
Compound `CCN(c1cccc2ccccc12)S(=O)(=O)c1ccc(Cl)nc1` had a solubility (kinetic) of 7.9 µg/mL (≈ 22.8 µM).
`Cc1ccc(S(=O)(=O)NCc2ccccn2)c(C)c1`: the kinetic solubility was > 41.5 µg/mL.
The value for `CC(C)Oc1ccc(C(=O)Nc2nc3ccccc3[nH]2)cc1` was 1.3 µg/mL (≈ 4.4 µM); that for `COc1ccc(CCNC(=O)c2ccccc2SC)cc1` was 27.4 µg/mL (≈ 90.9 µM).
Consider `Cc1[nH]c(=O)[nH]c(=O)c1S(=O)(=O)Nc1cccc(C(F)(F)F)c1`, for which the solubility (kinetic) is > 52.4 µg/mL.
The compound `Cc1ccc(S(=O)(=O)N2CCN(C(=O)COC(=O)CNC(=O)c3ccc(C(C)(C)C)cc3)CC2)c(C)c1` registered a solubility (kinetic) of 16.5 µg/mL (≈ 31.2 µM).
The value for `Cc1ccc(NC(=O)C(C)Sc2nnc3ccccn23)cc1` (stereo unspecified) was > 46.9 µg/mL; that for `O=C(CCCc1ccccc1)NC12CC3CC(CC(C3)C1)C2` was 11 µg/mL (≈ 37 µM).
Take `COc1ccc(NC(=O)c2onc(C)c2Cl)cc1`: the solubility (kinetic) worked out at 10 µg/mL (≈ 37.5 µM).
For the compound `CCOc1ccc(C2Nc3ccccc3C(CC)(CC)O2)cc1` (stereo unspecified), the solubility (kinetic) was 2.1 µg/mL (≈ 6.74 µM).
In the case of `CC(C)CCNC(=O)NC(=O)CSc1ncccn1` it was 28.9 µg/mL (≈ 102 µM); in that of `COc1ccccc1Cn1c(C(C)C)nc2ccccc21`, > 42.1 µg/mL; in that of `O=C(N/C(=C\c1ccccc1)C(=O)N1CCCCC1)c1ccco1`, 42.4 µg/mL (≈ 131 µM).
In the case of `Cc1ccc(NC(=O)C(=O)NCCCN2CCCC2=O)c(C)c1` it was > 47.6 µg/mL; in that of `CCOc1ccccc1NC(=S)NCc1ccccc1`, 38.8 µg/mL (≈ 135 µM); in that of `CCCCc1ccc(NC(=O)N[C@@H](C)C(=O)O)cc1`, > 39.6 µg/mL.
In the case of `CC(C)c1ccccc1OCC(=O)N1CCCN(C)CC1` it was > 43.6 µg/mL; in that of `Cc1ccsc1C(=O)OCC(=O)NC1CCCC(C)C1C` (stereo unspecified), 11.3 µg/mL (≈ 36.5 µM).
Regarding `CC(=O)Nc1ccc(Oc2nc(-c3ccccn3)nc3ccccc23)cc1`, the kinetic solubility is 6.8 µg/mL (≈ 19.1 µM). This solubility kinetic lies about 1.7-fold lower than the previous one.
In the case of `COC(=O)c1ccc(COC(=O)CNC(=O)CNC(=O)c2ccc(OC)cc2)cc1` it was 16.1 µg/mL (≈ 38.9 µM).
In the case of `O=C(Nc1ccccc1)c1cc([N+](=O)[O-])ccc1N1CCCCC1` it was 1.7 µg/mL (≈ 5.22 µM); in that of `COc1cc(C(=O)O/N=C(\N)c2cccc([N+](=O)[O-])c2)cc(OC)c1OC`, 0.3 µg/mL (≈ 0.799 µM).
The value for `Cc1cc([N+](=O)[O-])nn1CC(=O)NC(C)c1ccccc1` (stereo unspecified) was > 43.2 µg/mL.

The term solubility (kinetic) denotes solubility judged after dilution from a stock solution rather than from solid.
